# According to patent US20090158447A1, “TLR ligand and IL-1 Response-Injured Animal Model” (priority 2004, published 2009):
# Tests used:
# Format in all cases: cell-based, mouse
# [1] = system: peritoneal macrophages or lung-derived normal cells; experiment: Northern blot analysis of IκB-ζ, Bcl-3 and IκB-α expression on TLR/IL-1R stimulation; settings: stimulation for 2 hours, FIG. 1a
# Description: Peritoneal macrophages and lung primary cells were stimulated with 100 ng ml^−1 BLP, 10 μg ml^−1 PGN, 30 ng ml^−1 MALP-2, 100 nM R-848, 3 μM CpG DNA, 10 ng ml^−1 IL-1β, 10 μg ml^−1 LPS, 100 ng ml^−1 flagellin, and 10 ng ml^−1 TNF-α for 2 hours. Total RNA (10 μg) was extracted and subjected to Northern blot analysis for investigating the expression of IκB-ζ, Bcl-3, IκB-α, and β-actin. b. MEFs from wild-type and MyD88-deficient mice were stimulated with 10 ng ml^−1 IL-1β and 10 μg ml^−1 LPS for the indicated periods. Total RNA (10 μg) was extracted and subjected to Northern blot analysis for investigating the expression of IκB-ζ, Cox-2, IP-10, and β-actin.
# Whether IκB-ζ would be induced in response to other TLR ligands was examined based on the fact that stimulation with IL-1 or LPS induces IκB-ζ in macrophage cell lines and fibroblasts, and that IL-1R and the receptor for LPS, TLR4, share the intracellular signaling pathways. […] On the other hand, other IκB family members, IκB-α and Bcl-3, were induced in response to TNF-αas well as a TLR ligand and IL-1. Taken together, unlike IκB-α and Bcl-3, the IκB-ζ induction is specifically detected on the TLR/IL-1R stimulation.
# peritoneal macrophages = experiment: Time-course Northern blot analysis of IκB-ζ induction following LPS stimulation; settings: wild-type peritoneal macrophages, 10 ng ml^−1 LPS, FIG. 3h
# Description: It is a figure showing immune responses in IκB-ζ-deficient cells, and kinetics of IκB-ζ induction. a, b, c, d. Peritoneal macrophages from wild-type and IκB-ζ-deficient mice were cultured with the indicated concentrations of PGN, R-848, CpG DNA in the coexistence of 10 ng ml^−1 LPS, 100 ng ml^−1 BLP, and 30 ng ml^−1 MALP-2, and in the presence of 30 ng ml^−1 IFN-γ for 24 h. Concentrations of IL-6, TNF-α, and NO in the culture supernatants were measured. The indicated values are means±SD of triplicates. “N.D.” means not detected. e. MEFs from wild-type and IκB-ζ-deficient mice were stimulated with 10 ng ml^−1 IL-1 and 10 ng ml^−1 TNF-α. Supernatents were collected for IL-6 analysis by ELISA 24 h later. Indicated values are means±SD of triplicates. “N.D.” means not detected. f. Peritoneal macrophages were stimulated with 10 ng ml^−1 LPS for the indicated periods. Total RNA (5 μg) was extracted and subjected to Northern blot analysis for investigating the expression of IL-6, TNF-α, and β-actin. g. […] Concentrations of IL-6 in the culture supernatants, with or without 10 ng ml^−1 IL-β, were measured by ELISA. […] Two-independent experiments with independently derived wild-type cells were quantitated by Phospholmager and mRNA amount was graphed for the indicated genes in arbitrary units (left for IκB-ζ and IL-6, right for TNF-α) relative to β-actin. […]
# RAW 264.7 cells = experiment: Luciferase reporter assay of IL-6 and ELAM1 promoters; settings: RAW 264.7 cells transfected with luciferase reporter plasmids, FIG. 4a
# From the text: It is a figure showing the result of an in vitro analysis of IκB-ζ on the IL-6 promoter. a. RAW 264.7 cells were transiently transfected with luciferase reporter constructs of either mouse IL-6 promoter or ELAM1 promoter together with either a control or the IκB-ζ expression plasmid. Luciferase activities were expressed as fold-increase over the background shown by lysates prepared from untransfected cells. Data are representative of three separate experiments. In all three experiments, cells were stimulated with the indicated concentrations of LPS. b. A certain amount of IκB-ζ expression vector was transiently introduced into untreated RAW 264.7 cells with the indicated amount of IL-6 reporter plasmid. Data are representative of three independent experiments. c. […] Precipitated DNA for the IL-6 κB site (left), 3′ region of IL-6 gene (center), or ELAM1 promoter (right) was measured by PCR (ChIP). […]
# Reporter plasmids were transiently co-transfected into RAW 264.7 and P19 cells with either control or the IκB-ζ expression vectors by using SUPERFECT transfection reagent (QIAGEN). Luciferase activities of total cell lysates were measured using dual-luciferase reporter assay system (Promega, Maiden, Wis.) according to the method described previously (28, 29) (Nat Immunol. 3, 392-398 (2002); Nat Immunol. 2, 835-841 (2001)).
substance,measurement,setting,value
lipopolysaccharide [LPS],IκB-ζ mRNA induction,[1],strongly induced
same,time after stimulation at which IκB-ζ induction reached its maximum level,peritoneal macrophages,120 min
same,time after stimulation at which IκB-ζ induction was observed,peritoneal macrophages,30 min
same,activation of both IL-6 and ELAM1 promoters,RAW 264.7 cells,dose-dependent manner
